# Laboratory results taken from ChEMBL document CHEMBL4145553, “Design, synthesis, and biological evaluation of novel amide and hydrazide based thioether analogs targeting Histone deacteylase (HDAC) enzymes” (Eur J Med Chem, 2018).
# Calls of active or inactive are those of the source. The rule behind the calls is not given here.
# How the values were obtained:
# SK-MEL-2 = test: Growth inhibition of human SK-MEL-2 cells assessed as cell growth at 10^-6 M incubated for 48 hrs by sulforhodamine B assay relative to control; type: functional; details: SK-MEL-2, 48 h, read-out: Activity
# Malme-3M = test: Growth inhibition of human MALME-3M cells assessed as cell growth at 10^-6 M incubated for 48 hrs by sulforhodamine B assay relative to control; type: functional; details: read-out: Activity
# NCI/ADR-RES [1] = test: Growth inhibition of human NCI/ADR-RES cells assessed as cell growth at 10^-5 M incubated for 48 hrs by sulforhodamine B assay relative to control; type: functional; details: read-out: Activity
# SNB-75 [2] = test: Growth inhibition of human SNB75 cells assessed as cell growth at 10^-4 M incubated for 48 hrs by sulforhodamine B assay relative to control; type: functional; details: SNB-75, 48 h, read-out: Activity
# A549 = test: Growth inhibition of human A549/ATCC cells assessed as cell growth at 10^-8 M incubated for 48 hrs by sulforhodamine B assay relative to control; type: functional; details: A549, 48 h, read-out: Activity
# SNB-19 = test: Growth inhibition of human SNB19 cells assessed as cell growth at 10^-5 M incubated for 48 hrs by sulforhodamine B assay relative to control; type: functional; details: SNB-19, 48 h, read-out: Activity
# RXF 393 [3] = test: Growth inhibition of human RXF393 cells assessed as cell growth at 10^-6 M incubated for 48 hrs by sulforhodamine B assay relative to control; type: functional; details: RXF 393, 48 h, read-out: Activity
# SF-539 [4] = test: Growth inhibition of human SF539 cells assessed as cell growth at 10^-5 M incubated for 48 hrs by sulforhodamine B assay relative to control; type: functional; details: SF-539, 48 h, read-out: Activity
# UACC-257 [5] = test: Growth inhibition of human UACC257 cells assessed as cell growth at 10^-4 M incubated for 48 hrs by sulforhodamine B assay relative to control; type: functional; details: UACC-257, 48 h, read-out: Activity
# Hs-578T = test: Growth inhibition of human Hs 578T cells assessed as cell growth at 10^-5 M incubated for 48 hrs by sulforhodamine B assay relative to control; type: functional; details: read-out: Activity
# NCI-H522 [6] = test: Growth inhibition of human NCI-H522 cells assessed as cell growth at 10^-5 M incubated for 48 hrs by sulforhodamine B assay relative to control; type: functional; details: NCI-H522, 48 h, read-out: Activity
# UO-31 = test: Growth inhibition of human UO31 cells assessed as cell growth at 10^-5 M incubated for 48 hrs by sulforhodamine B assay relative to control; type: functional; details: UO-31, 48 h, read-out: Activity
# OVCAR-8 = test: Growth inhibition of human OVCAR8 cells assessed as cell growth at 10^-5 M incubated for 48 hrs by sulforhodamine B assay relative to control; type: functional; details: OVCAR-8, 48 h, read-out: Activity
# OVCAR-3 = test: Growth inhibition of human OVCAR3 cells assessed as cell growth at 10^-8 M incubated for 48 hrs by sulforhodamine B assay relative to control; type: functional; details: OVCAR-3, 48 h, read-out: Activity
# HCT-15 = test: Growth inhibition of human HCT15 cells assessed as cell growth at 10^-7 M incubated for 48 hrs by sulforhodamine B assay relative to control; type: functional; details: HCT-15, 48 h, read-out: Activity
# SK-MEL-28 = test: Growth inhibition of human SK-MEL-28 cells assessed as cell growth at 10^-5 M incubated for 48 hrs by sulforhodamine B assay relative to control; type: functional; details: SK-MEL-28, 48 h, read-out: Activity
# UACC-62 [7] = test: Growth inhibition of human UACC62 cells assessed as cell growth at 10^-8 M incubated for 48 hrs by sulforhodamine B assay relative to control; type: functional; details: UACC-62, 48 h, read-out: Activity
# RXF 393 [8] = test: Growth inhibition of human RXF393 cells assessed as cell growth at 10^-5 M incubated for 48 hrs by sulforhodamine B assay relative to control; type: functional; details: RXF 393, 48 h, read-out: Activity
# MDA-MB-468 = test: Growth inhibition of human MDA-MB-468 cells incubated for 48 hrs by sulforhodamine B assay; type: functional; details: MDA-MB-468, 48 h
# SF-539 [9] = test: Growth inhibition of human SF539 cells assessed as cell growth at 10^-6 M incubated for 48 hrs by sulforhodamine B assay relative to control; type: functional; details: SF-539, 48 h, read-out: Activity
# NCI-H322M = test: Growth inhibition of human NCI-H322M cells incubated for 48 hrs by sulforhodamine B assay; type: functional
# CCRF-CEM = test: Growth inhibition of human CCRF-CEM cells assessed as cell growth at 10^-5 M incubated for 48 hrs by sulforhodamine B assay relative to control; type: functional; details: read-out: Activity
# UACC-257 [10] = test: Growth inhibition of human UACC257 cells assessed as cell growth at 10^-5 M incubated for 48 hrs by sulforhodamine B assay relative to control; type: functional; details: UACC-257, 48 h, read-out: Activity
# UACC-62 [11] = test: Growth inhibition of human UACC62 cells assessed as cell growth at 10^-7 M incubated for 48 hrs by sulforhodamine B assay relative to control; type: functional; details: UACC-62, 48 h, read-out: Activity
# MDA-MB-435 = test: Induction of apoptosis in human MDA-MB-435 cells assessed as increase in caspase-9 expression by qRT-PCR method; type: functional, cell-based
# SNB-75 [12] = test: Growth inhibition of human SNB75 cells incubated for 48 hrs by sulforhodamine B assay; type: functional; details: SNB-75, 48 h
# IGROV-1 = test: Growth inhibition of human IGROV1 cells assessed as cell growth at 10^-5 M incubated for 48 hrs by sulforhodamine B assay relative to control; type: functional; details: IGROV-1, 48 h, read-out: Activity
# NCI/ADR-RES [13] = test: Growth inhibition of human NCI/ADR-RES cells assessed as cell growth at 10^-7 M incubated for 48 hrs by sulforhodamine B assay relative to control; type: functional; details: read-out: Activity
# HL-60 = test: Induction of apoptosis in human HL60 cells assessed as late apoptotic cells by propidium iodide/Annexin V staining based flow cytometry (reference value: 0.54%); type: functional
# NCI-H522 [14] = test: Growth inhibition of human NCI-H522 cells assessed as cell growth at 10^-8 M incubated for 48 hrs by sulforhodamine B assay relative to control; type: functional; details: NCI-H522, 48 h, read-out: Activity
# Histone deacetylase 1 = Histone deacetylase 1 (Homo sapiens, UniProt Q13547); test: Inhibition of human HDAC1 by ELISA
# Sequence of Histone deacetylase 1 (Q13547 whole entry): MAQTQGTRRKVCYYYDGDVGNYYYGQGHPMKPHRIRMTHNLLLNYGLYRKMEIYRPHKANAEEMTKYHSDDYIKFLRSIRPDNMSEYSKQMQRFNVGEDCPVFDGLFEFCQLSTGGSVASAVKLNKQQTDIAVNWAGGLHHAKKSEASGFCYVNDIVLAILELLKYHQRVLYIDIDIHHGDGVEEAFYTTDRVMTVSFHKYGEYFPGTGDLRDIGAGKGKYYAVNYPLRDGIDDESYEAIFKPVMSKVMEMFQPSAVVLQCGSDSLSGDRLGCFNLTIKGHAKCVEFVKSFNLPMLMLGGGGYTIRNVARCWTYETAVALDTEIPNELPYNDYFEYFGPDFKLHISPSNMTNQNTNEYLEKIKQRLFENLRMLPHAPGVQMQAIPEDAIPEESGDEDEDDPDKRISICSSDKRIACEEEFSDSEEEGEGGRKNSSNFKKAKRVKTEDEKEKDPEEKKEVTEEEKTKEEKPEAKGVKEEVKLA
# 786-0 = test: Growth inhibition of human 786-0 cells incubated for 48 hrs by sulforhodamine B assay; type: functional; details: 786-0, 48 h
# [15] = read-out: LC50 (the source's name)
# [16] = read-out: pLC50 (the source's name) (converted)
compound,measurement,setting,value
CCS/C(Nc1ccccc1)=C(\C#N)C(=O)N/N=C\c1ccc(Cl)cc1Cl,growth at 1 µM,SK-MEL-2,86%
same,growth at 1 µM,Malme-3M,79%
same,growth at 10 µM,NCI/ADR-RES [1],13%
same,growth at 100 µM,SNB-75 [2],-17%
same,growth at 0.01 µM,A549,97%
same,growth at 10 µM,SNB-19,28%
same,growth at 1 µM,RXF 393 [3],75%
same,growth at 10 µM,SF-539 [4],3%
same,growth at 100 µM,UACC-257 [5],35%
same,growth at 10 µM,Hs-578T,18%
same,growth at 10 µM,NCI-H522 [6],-2%
same,growth at 10 µM,UO-31,43%
same,growth at 10 µM,OVCAR-8,27%
same,growth at 0.01 µM,OVCAR-3,102%
same,growth at 0.1 µM,HCT-15,87%
same,growth at 10 µM,SK-MEL-28,53%
same,growth at 0.01 µM,UACC-62 [7],92%
same,growth at 10 µM,RXF 393 [8],-5%
same,GI50,MDA-MB-468; read-out: GI50,2.6 µM
same,CC50,MDA-MB-468; [15],> 100 µM
same,TGI,MDA-MB-468; read-out: TGI,9.19 µM
same,GI50,MDA-MB-468; read-out: pGI50 (converted),2.63 µM
same,CC50,MDA-MB-468; [16],> 100 µM
same,TGI,MDA-MB-468; read-out: pTGI (converted),9.12 µM
same,growth at 1 µM,SF-539 [9],90%
same,GI50,NCI-H322M; read-out: GI50,6.87 µM
same,CC50,NCI-H322M; [15],> 100 µM
same,TGI,NCI-H322M; read-out: TGI,> 100 µM
same,GI50,NCI-H322M; read-out: pGI50 (converted),6.92 µM
same,CC50,NCI-H322M; [16],> 100 µM
same,TGI,NCI-H322M; read-out: pTGI,> 100 µM
same,growth at 10 µM,CCRF-CEM,16%
same,growth at 10 µM,UACC-257 [10],61%
same,growth at 0.1 µM,UACC-62 [11],91%
same,Activity,MDA-MB-435,Active
same,GI50,SNB-75 [12]; read-out: GI50,2.15 µM
same,CC50,SNB-75 [12]; [15],> 100 µM
same,TGI,SNB-75 [12]; read-out: TGI,9.37 µM
same,GI50,SNB-75 [12]; read-out: pGI50 (converted),2.14 µM
same,CC50,SNB-75 [12]; [16],> 100 µM
same,TGI,SNB-75 [12]; read-out: pTGI (converted),9.33 µM
same,growth at 10 µM,IGROV-1,42%
same,growth at 0.1 µM,NCI/ADR-RES [13],97%
same,Activity,HL-60,8.54%
same,growth at 0.01 µM,NCI-H522 [14],109%
same,IC50,Histone deacetylase 1,0.07 µM
same,GI50,786-0; read-out: GI50,3.5 µM
same,CC50,786-0; [15],> 100 µM
same,TGI,786-0; read-out: TGI,> 100 µM
same,GI50,786-0; read-out: pGI50 (converted),3.47 µM
same,CC50,786-0; [16],> 100 µM
same,TGI,786-0; read-out: pTGI,> 100 µM
CCS/C(Nc1ccccc1)=C(\C#N)C(=O)Nc1ccc(OC)cc1,growth at 1 µM,SK-MEL-2,86%
same,growth at 1 µM,Malme-3M,79%
same,growth at 10 µM,NCI/ADR-RES [1],18%
same,growth at 100 µM,SNB-75 [2],-22%
same,growth at 0.01 µM,A549,95%
same,growth at 10 µM,SNB-19,22%
same,growth at 1 µM,RXF 393 [3],82%
same,growth at 10 µM,SF-539 [4],-41%
same,growth at 100 µM,UACC-257 [5],37%
same,growth at 10 µM,Hs-578T,28%
same,growth at 10 µM,NCI-H522 [6],-1%
same,growth at 10 µM,UO-31,37%
same,growth at 10 µM,OVCAR-8,23%
same,growth at 0.01 µM,OVCAR-3,97%
same,growth at 0.1 µM,HCT-15,88%
same,growth at 10 µM,SK-MEL-28,53%
same,growth at 0.01 µM,UACC-62 [7],93%
same,growth at 10 µM,RXF 393 [8],-10%
same,GI50,MDA-MB-468; read-out: GI50,1.39 µM
same,CC50,MDA-MB-468; [15],> 100 µM
same,TGI,MDA-MB-468; read-out: TGI,7.51 µM
same,GI50,MDA-MB-468; read-out: pGI50 (converted),1.38 µM
same,CC50,MDA-MB-468; [16],> 100 µM
same,TGI,MDA-MB-468; read-out: pTGI (converted),7.59 µM
same,growth at 1 µM,SF-539 [9],87%
same,GI50,NCI-H322M; read-out: GI50,5.81 µM
same,CC50,NCI-H322M; [15],> 100 µM
same,TGI,NCI-H322M; read-out: TGI,> 100 µM
same,GI50,NCI-H322M; read-out: pGI50 (converted),5.75 µM
same,CC50,NCI-H322M; [16],> 100 µM
same,TGI,NCI-H322M; read-out: pTGI,> 100 µM
same,growth at 10 µM,CCRF-CEM,11%
same,growth at 10 µM,UACC-257 [10],56%
same,growth at 0.1 µM,UACC-62 [11],93%
same,Activity,MDA-MB-435,Active
same,GI50,SNB-75 [12]; read-out: GI50,2.13 µM
same,CC50,SNB-75 [12]; [15],> 100 µM
same,TGI,SNB-75 [12]; read-out: TGI,7.21 µM
same,GI50,SNB-75 [12]; read-out: pGI50 (converted),2.14 µM
same,CC50,SNB-75 [12]; [16],> 100 µM
same,TGI,SNB-75 [12]; read-out: pTGI (converted),7.24 µM
same,growth at 10 µM,IGROV-1,39%
same,growth at 0.1 µM,NCI/ADR-RES [13],95%
same,Activity,HL-60,7.19%
same,growth at 0.01 µM,NCI-H522 [14],107%
same,IC50,Histone deacetylase 1,0.038 µM
same,GI50,786-0; read-out: GI50,4.14 µM
same,CC50,786-0; [15],> 100 µM
same,TGI,786-0; read-out: TGI,> 100 µM
same,GI50,786-0; read-out: pGI50 (converted),4.17 µM
same,CC50,786-0; [16],> 100 µM
same,TGI,786-0; read-out: pTGI,> 100 µM
